# Assay results published in ChEMBL document CHEMBL1201862, “PubChem BioAssay data set” (2004).
# Active and inactive are the calls of the source.
# Columns and labels:
# Paired box protein Pax-8 = Paired box protein Pax-8 (Homo sapiens, UniProt Q06710); test: inhibitors of PAX8-driven TPO luciferase reporter, dose response, RMG-I cells, cherry-pick (AID 687027); type: functional, cell-based;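 note: luciferase reporter driven by Pax8 target thyroperoxidase promoter measured by SteadyGlo luminescence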
# [1] = biological target: T1, Microphthalmia-associated transcription factor (Homo sapiens, UniProt O75030); test: TRPM1 promoter luciferase signal decrease, dose response, MITF inhibitor project, cell-based, SK-MEL-5, cherry-picked, set 3 (AID 493073); type: functional
# T1 sequence (O75030 whole entry): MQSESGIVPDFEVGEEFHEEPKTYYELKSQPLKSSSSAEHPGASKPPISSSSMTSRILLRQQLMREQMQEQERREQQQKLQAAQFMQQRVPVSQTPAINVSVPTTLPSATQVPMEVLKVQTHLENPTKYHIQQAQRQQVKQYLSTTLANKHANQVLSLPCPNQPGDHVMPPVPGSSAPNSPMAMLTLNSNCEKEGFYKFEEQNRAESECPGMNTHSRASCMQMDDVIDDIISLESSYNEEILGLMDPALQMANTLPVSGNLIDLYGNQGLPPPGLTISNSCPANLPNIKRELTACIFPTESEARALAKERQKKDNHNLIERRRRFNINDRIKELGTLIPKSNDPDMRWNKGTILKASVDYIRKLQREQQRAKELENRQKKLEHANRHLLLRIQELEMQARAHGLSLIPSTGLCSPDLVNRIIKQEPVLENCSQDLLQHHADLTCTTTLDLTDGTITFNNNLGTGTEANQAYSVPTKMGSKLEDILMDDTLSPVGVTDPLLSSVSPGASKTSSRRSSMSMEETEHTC
# [2] = MC4R antagonists, dose response, counter-screen for LGR2 antagonist project, cell-based, plate reader, cherry pick (AID 743444); type: functional;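 note: transfected HEK 293 cells stimulated with alpha-MSH peptide; potency of inhibitors of the alpha-MSH evoked signal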
# Jurkat [3] = test: antigen receptor-induced NF-kB inhibitors, dose response, Jurkat, luciferase reporter, luminescence, B- and T-cell (AID 489004); type: functional, cell-based; conditions: Homo sapiens;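 note: NF-kB luciferase reporter Jurkat cells stimulated with PMA plus ionomycin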
# [4] = non-specific cell cytotoxicity, dose response, cytotoxicity control for PAX8 inhibitor project, plate reader, dry powder samples (AID 743021); type: functional, cell-based
# [5] = HEK293 cell cytotoxicity, dose response, cytotoxicity control, plate reader, cherry-picked samples (AID 743446); type: functional, cell-based
# [6] = LGR2 antagonists, dose response, cell-based, HEK293, CRE-luciferase reporter, cherry pick, set 2 (AID 743343); type: functional;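 note: transfected cells were stimulated with diluted bursicon conditioned medium after compound addition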
# [7] = cytotoxicity in HEK-293T NF-kB-Luc cells, dose response, cytotoxicity control for B/T-cell NF-kB inhibitor project, cell-based, uHTS hits (AID 489019); type: functional;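 note: IC50 reflects cytotoxicity as loss of cell viability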
# [8] = A549 cell cytotoxicity, dose response, cytotoxicity control, plate reader, cherry-pick, antagonist series (AID 743412); type: functional, cell-based
# [9] = HepG2 cell cytotoxicity, dose response, cytotoxicity control, plate reader, cherry-pick, antagonist series (AID 743416); type: functional, cell-based
# Cysteine protease ATG4B = Cysteine protease ATG4B (Homo sapiens, UniProt Q9Y4P1); type: functional;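 note: Fluorescence-based dose-response confirmation assay measuring inhibition of ATG4B activity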
# Phospholipase A2 = Phospholipase A2 (Homo sapiens, UniProt P04054); type: functional;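 note: confirmatory dose-response counterscreen on phospholipase A2, testing hits that came from an ultra-high-throughput screen for ATG4B inhibitors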
# [10] = Counterscreen for AddAB inhibitors: absorbance-based bacterial cell-based high throughput dose response assay for inhibitors of bacterial viability. [Related pubchem assays (depositor defined):AID435030, AID449728, AID449731, AID488942, AID488955, AID488956]; type: functional
# Exodeoxyribonuclease V = Exodeoxyribonuclease V (Escherichia coli (strain K12), UniProt P04993+P07648+P08394); test: E. coli RecBCD inhibitors, dose response, counter-screen for AddAB inhibitor project, absorbance, V66 E. coli, mutant T4 phage (AID 492957); type: functional, cell-based, Escherichia coli str. K-12 substr. MG1655
# [11] = biological target: Nucleotide-binding oligomerization domain-containing protein 1 (Homo sapiens, UniProt Q9Y239); test: NOD1 signaling inhibitors, SAR follow-up, revised (AID 2333); type: functional
# Tumor necrosis factor = Tumor necrosis factor (Homo sapiens, UniProt P01375); test: TNFa-triggered NF-kB activation inhibitors, SAR follow-up, cell-based, revised (AID 2337); type: functional
# HEK293 [12] = test: cells; conditions: Homo sapiens
# [13] = biological target: Nucleotide-binding oligomerization domain-containing protein 2 (Homo sapiens, UniProt Q9HC29); test: PubChem AID 2334; type: functional
# HEK293 [14] = test: SAR Analysis of small molecule inhibitors of T-cell specific antigen receptor-induced NF-kB activation in a HEK-293T cell line using a luminescence assay - Set 2. [Related pubchem assays (depositor defined):AID435003, AID435012, AID489026]; type: functional, cell-based; conditions: Homo sapiens
# Jurkat [15] = test: SAR Analysis of small molecule inhibitors of T-cell specific antigen receptor-induced NF-kB activation in a Jurkat cell line using a luminescence assay - Set 2. [Related pubchem assays (depositor defined):AID435003, AID435012, AID465]; type: functional, cell-based; conditions: Homo sapiens
# HEK293 [16] = test: cytotoxicity in HEK293T NF-kB-Luc cells, SAR follow-up, cytotoxicity control for NF-kB activator project, cell-based, resazurin fluorescence (AID 493251); type: functional; conditions: Homo sapiens
# Phospholipase D1 = Phospholipase D1 (Homo sapiens, UniProt Q13393); test: PLD1 inhibitor potency in cells, dose response (AID 602151); type: functional;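 note: cellular PLD1 assay in Calu-1 cells stimulated with PMA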
# Phospholipase D2 = Phospholipase D2 (Homo sapiens, UniProt O14939); test: PLD2 inhibitor potency in cells, dose response (AID 602147); type: functional;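 note: cellular assay in HEK293 cells overexpressing GFP-tagged PLD2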
# [17] = biological target: Serine/threonine-protein phosphatase (Candida dubliniensis (strain CD36 / CBS 7987 / NCPF 3949 / NRRLY-17841) (Yeast), UniProt B9W6M3); test: Fluorescence Cell-Based Secondary Assay to Identify Inhibitors of Calcineurin. [Related pubchem assays (depositor defined):AID1979, AID2007]; type: functional
# [18] = biological target: Dual specificity protein kinase CLK1 (Homo sapiens, UniProt P49759); test: CLK1 kinase inhibitors, off-target check, dose response, selectivity assay for Dyrk1A inhibitor project, biochemical, cherry-picked samples (AID 588811)
# [19] = biological target: Dual specificity tyrosine-phosphorylation-regulated kinase 1A (Rattus norvegicus, UniProt Q63470); type: biochemical, Homo sapiens
# [20] = growth induction of Burl-1 ts yeast mutant, dose response, counter-screen for SUMOylation pathway inhibitor project, whole organism, S. cerevisiae, luminescence (AID 463199); type: functional
# Sequence of Serine/threonine-protein phosphatase (B9W6M3 whole entry): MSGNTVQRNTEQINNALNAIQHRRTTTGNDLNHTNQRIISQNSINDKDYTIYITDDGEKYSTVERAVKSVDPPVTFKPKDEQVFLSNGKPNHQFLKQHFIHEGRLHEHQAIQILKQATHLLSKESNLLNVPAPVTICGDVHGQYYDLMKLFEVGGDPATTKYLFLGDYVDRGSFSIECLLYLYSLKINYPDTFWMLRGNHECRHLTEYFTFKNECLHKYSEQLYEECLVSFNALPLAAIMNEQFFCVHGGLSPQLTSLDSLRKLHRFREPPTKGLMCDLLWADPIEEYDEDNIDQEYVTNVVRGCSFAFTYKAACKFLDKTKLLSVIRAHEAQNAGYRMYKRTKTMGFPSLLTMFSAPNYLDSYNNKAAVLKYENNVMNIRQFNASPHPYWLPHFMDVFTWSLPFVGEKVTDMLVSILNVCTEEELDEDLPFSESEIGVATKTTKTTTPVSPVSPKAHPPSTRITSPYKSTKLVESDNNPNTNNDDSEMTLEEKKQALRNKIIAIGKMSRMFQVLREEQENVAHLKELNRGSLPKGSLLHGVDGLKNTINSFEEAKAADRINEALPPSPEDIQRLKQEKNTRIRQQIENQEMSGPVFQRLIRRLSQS
# Sequence of Paired box protein Pax-8 (Q06710 whole entry): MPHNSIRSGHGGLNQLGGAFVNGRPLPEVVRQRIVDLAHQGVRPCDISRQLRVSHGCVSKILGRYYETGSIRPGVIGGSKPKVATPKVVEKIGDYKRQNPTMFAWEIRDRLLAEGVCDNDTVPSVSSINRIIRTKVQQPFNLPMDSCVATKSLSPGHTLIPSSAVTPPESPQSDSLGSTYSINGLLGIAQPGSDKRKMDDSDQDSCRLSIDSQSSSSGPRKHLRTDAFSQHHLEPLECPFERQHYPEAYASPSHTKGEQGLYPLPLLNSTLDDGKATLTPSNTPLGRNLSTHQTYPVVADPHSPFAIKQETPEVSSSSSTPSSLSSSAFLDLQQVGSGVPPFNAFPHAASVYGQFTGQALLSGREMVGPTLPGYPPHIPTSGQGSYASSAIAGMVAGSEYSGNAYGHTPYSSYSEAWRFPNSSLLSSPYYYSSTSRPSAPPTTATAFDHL
# Sequence of Phospholipase A2 (P04054 whole entry): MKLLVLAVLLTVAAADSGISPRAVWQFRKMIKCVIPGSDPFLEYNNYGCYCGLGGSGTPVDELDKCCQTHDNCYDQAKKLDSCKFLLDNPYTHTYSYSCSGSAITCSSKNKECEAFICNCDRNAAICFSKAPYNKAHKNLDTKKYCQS
# Sequence of Phospholipase D2 (O14939 whole entry): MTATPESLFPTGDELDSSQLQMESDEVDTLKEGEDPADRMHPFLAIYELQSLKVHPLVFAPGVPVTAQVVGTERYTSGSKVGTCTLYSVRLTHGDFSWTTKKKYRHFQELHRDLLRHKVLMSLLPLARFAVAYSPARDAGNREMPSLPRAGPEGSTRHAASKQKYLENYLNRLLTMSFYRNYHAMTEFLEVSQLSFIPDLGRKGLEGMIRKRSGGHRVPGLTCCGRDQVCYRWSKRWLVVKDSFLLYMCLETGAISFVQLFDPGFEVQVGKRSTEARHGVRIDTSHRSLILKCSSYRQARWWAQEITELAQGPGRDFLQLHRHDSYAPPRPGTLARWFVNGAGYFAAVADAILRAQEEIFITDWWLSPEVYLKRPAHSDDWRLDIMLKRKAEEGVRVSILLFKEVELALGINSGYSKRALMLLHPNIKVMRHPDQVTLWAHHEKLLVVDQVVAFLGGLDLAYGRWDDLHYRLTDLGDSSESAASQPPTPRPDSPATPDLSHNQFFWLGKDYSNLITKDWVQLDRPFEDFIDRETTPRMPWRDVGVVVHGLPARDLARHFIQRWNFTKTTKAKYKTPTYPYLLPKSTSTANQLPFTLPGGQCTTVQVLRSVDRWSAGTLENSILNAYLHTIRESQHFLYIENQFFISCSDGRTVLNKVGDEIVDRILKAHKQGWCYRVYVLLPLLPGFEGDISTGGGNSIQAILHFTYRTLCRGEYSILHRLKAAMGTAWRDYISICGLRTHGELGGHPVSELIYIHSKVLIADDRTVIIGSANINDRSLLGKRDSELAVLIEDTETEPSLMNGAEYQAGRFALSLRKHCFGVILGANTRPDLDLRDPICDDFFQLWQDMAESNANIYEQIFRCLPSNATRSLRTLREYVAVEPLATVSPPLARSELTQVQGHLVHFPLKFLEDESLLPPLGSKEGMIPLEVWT
# Sequence of Tumor necrosis factor (P01375 whole entry): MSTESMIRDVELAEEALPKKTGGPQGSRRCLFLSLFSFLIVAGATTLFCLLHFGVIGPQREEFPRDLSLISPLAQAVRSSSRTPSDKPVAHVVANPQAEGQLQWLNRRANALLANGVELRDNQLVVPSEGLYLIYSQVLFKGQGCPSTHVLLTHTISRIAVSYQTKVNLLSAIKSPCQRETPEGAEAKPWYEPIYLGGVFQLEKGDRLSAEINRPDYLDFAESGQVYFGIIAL
# Sequence of Dual specificity protein kinase CLK1 (P49759 whole entry): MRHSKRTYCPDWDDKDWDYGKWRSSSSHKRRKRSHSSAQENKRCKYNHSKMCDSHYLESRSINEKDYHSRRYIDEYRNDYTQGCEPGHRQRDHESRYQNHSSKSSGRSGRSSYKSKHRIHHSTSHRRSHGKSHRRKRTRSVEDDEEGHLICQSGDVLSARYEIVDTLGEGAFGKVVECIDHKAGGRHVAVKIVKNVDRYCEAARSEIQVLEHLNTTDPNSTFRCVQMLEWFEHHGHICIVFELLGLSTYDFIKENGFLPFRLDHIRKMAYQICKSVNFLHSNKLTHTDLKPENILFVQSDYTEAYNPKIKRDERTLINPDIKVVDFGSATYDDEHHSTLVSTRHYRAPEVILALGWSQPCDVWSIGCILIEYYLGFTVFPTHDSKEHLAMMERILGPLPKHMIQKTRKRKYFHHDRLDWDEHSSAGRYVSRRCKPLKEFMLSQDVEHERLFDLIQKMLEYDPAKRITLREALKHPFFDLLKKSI
# Sequence of Nucleotide-binding oligomerization domain-containing protein 2 (Q9HC29 whole entry, the tested form may be a part): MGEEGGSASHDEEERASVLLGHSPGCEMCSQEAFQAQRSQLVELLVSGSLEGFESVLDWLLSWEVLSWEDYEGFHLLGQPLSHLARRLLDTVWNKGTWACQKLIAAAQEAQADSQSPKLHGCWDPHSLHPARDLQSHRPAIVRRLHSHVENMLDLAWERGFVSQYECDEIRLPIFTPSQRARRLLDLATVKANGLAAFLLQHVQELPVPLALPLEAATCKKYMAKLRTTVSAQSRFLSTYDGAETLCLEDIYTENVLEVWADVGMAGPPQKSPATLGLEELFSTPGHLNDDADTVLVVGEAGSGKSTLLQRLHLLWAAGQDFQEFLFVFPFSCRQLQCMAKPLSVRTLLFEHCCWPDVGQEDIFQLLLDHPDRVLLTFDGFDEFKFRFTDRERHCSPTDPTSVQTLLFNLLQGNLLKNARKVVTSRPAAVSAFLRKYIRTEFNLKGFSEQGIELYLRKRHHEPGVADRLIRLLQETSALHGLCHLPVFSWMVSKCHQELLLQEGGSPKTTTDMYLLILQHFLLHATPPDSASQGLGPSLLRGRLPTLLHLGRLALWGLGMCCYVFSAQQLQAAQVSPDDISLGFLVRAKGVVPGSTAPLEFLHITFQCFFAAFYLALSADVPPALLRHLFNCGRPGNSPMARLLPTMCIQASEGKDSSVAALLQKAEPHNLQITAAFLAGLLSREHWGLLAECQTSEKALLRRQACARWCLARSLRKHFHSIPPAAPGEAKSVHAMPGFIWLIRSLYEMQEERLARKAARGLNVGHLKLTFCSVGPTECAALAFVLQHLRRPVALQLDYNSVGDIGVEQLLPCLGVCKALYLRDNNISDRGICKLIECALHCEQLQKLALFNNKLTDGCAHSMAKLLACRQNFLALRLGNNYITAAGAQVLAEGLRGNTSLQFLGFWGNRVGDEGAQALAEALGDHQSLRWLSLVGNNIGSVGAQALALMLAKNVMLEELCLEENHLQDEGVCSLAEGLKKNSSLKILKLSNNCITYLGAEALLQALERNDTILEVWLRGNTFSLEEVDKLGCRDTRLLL
# Sequence of Nucleotide-binding oligomerization domain-containing protein 1 (Q9Y239 whole entry, the tested form may be a part): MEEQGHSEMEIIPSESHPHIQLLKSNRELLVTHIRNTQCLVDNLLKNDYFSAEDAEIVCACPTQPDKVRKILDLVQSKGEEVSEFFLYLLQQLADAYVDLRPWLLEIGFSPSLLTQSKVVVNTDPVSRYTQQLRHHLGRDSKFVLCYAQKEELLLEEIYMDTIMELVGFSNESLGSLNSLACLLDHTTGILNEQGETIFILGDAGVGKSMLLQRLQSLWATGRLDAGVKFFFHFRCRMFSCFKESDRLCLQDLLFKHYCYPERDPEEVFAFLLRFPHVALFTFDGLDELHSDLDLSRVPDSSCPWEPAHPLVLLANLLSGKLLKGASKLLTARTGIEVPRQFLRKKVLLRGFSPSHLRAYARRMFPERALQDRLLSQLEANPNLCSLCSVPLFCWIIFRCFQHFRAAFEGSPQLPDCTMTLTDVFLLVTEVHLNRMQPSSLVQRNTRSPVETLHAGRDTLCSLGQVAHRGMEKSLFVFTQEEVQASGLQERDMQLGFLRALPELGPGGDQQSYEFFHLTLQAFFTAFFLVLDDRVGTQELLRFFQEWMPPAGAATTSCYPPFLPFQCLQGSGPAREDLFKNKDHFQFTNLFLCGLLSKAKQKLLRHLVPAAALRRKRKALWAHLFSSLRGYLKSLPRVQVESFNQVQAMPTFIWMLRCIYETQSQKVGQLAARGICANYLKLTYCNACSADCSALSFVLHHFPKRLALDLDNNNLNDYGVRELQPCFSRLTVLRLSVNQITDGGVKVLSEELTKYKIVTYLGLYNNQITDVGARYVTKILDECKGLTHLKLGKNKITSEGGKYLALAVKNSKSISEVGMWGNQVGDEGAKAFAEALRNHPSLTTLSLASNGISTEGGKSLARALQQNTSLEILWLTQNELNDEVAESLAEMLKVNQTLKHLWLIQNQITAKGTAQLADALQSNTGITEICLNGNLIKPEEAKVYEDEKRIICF
smiles,measurement,setting,value
CCOc1ccc(NC(=O)Nc2cccc(C(=O)O)c2)cc1,AC50,Paired box protein Pax-8,3.85 µM (active)
same,AC50,[1],1.53 µM (active)
same,AC50,[2],0.319 µM (active)
same,IC50,Jurkat [3],0.85 µM (active)
same,AC50,[4],11.7 µM (active)
same,AC50,[5],40.4 µM (active)
same,AC50,[6],0.303 µM (active)
same,IC50,[7],> 80 µM (inactive)
same,AC50,[8],45.1 µM (active)
same,AC50,[9],> 52 µM (inactive)
N#Cc1c(N)[nH]c2ccc(Sc3ccccc3)cc12,IC50,Cysteine protease ATG4B,11.5 µM (active)
same,IC50,Phospholipase A2,9.57 µM (active)
O=C(Cc1ccc2c(c1)OCO2)NN=Cc1ccc([N+](=O)[O-])o1,IC50,[10],21 µM (inactive)
same,AC50,[1],8.55 µM (active)
same,IC50,Exodeoxyribonuclease V,> 39.5 µM (inactive)
CC(C)(C)NC(=S)NNC=C1C=C(Br)C(=O)C(Br)=C1,IC50,[11],7.29 µM (active)
same,IC50,Tumor necrosis factor,15.6 µM (active)
same,IC50,HEK293 [12],> 20 µM (inactive)
same,IC50,[13],7.93 µM (active)
CC(=O)c1cccc(NC(=O)c2ccc([N+](=O)[O-])o2)c1,IC50,HEK293 [14],37.1 µM (inactive)
same,IC50,Jurkat [15],27.6 µM (inactive)
same,IC50,HEK293 [16],69.3 µM (inactive)
O=C(NCCN1CCC(C(=O)NCC2CC2)CC1)c1ccc2ccccc2c1,IC50,Phospholipase D1,20 µM (active)
same,IC50,Phospholipase D2,20 µM (active)
O=C(Nc1nnc(SCc2ccc(Cl)cc2)s1)c1ccc2ccccc2n1,EC50,[17],> 285 µM (inactive)
Cc1nc(N)sc1-c1csc(Nc2ccccc2)n1,AC50,[18],18.3 µM (active)
same,AC50,[19],14.4 µM (active)
CCCCn1c(/N=C/c2ccc3c(c2)OCO3)nc2ccccc21,AC50,[20],60 µM (active)
